According to paper PMC9081605, “A High-Throughput Toxicity Screen of 42 Per- and Polyfluoroalkyl Substances (PFAS) and Functional Assessment of Migration and Gene Expression in Human Placental Trophoblast Cells” (Frontiers in Toxicology, 2022):
Entries after “also recorded” stand apart in the source; their conditions may differ.

Test system: JEG-3 cells
Experiment: Gene expression, custom NanoString code set of 46 genes
Assay type: cell-based, human
Method: JEG-3 cells were seeded at a density of 80,000 cells per well in six well plates and allowed to adhere overnight (24 h). The following day, media was removed and replaced with exposure media, then returned to the incubator for 24 h. The test compounds included non-cytotoxic concentrations of PFOA (0, 1, and 100 µM) and GenX (0, 3, 300 µM). These test compounds were selected a priori due to their high public health relevance. Each 6 well plate contained the three concentrations for either PFOA or GenX, with each condition in technical duplicate. Plates containing these PFOA or GenX exposure conditions were replicated three times (N = 3). After 24 h, exposure media was aspirated and cells were washed in ice cold 1xPBS, which was then aspirated. Each well received 500 µl of TRIzol reagent (Thermo Fisher Scientific, MA, United States) and cells were harvested in the TRIzol using a cell scraper. Technical duplicate wells within a plate were combined to generate a single sample of ∼1,000 µl. RNA was isolated from the resulting cellular homogenate using RNeasy Mini Kits (Qiagen, Hilden, Germany). Isolated RNA quality was validated and concentration determined using a NanoDrop 2000 (Thermo Fisher Scientific, MA, United States). 100 ng of mRNA from each sample was then analyzed using a custom gene expression code set (NanoString, Seattle, WA, United States). The custom code set included 46 genes selected for their downstream involvement in placental development (e.g., WNT4), endocrine signaling (e.g., CYP19A1), fetal growth/nutrient sensing (e.g., IGF2), inflammation (e.g., IL6), oxidative stress (e.g., SOD1, GPX1), and xenobiotic transport/metabolism (e.g., ABCG2, MRP3).
Gene expression data were quantified using the nCounter Digital Analyzer (NanoString, Seattle, WA, United States) and raw and adjusted counts were generated with nSolver (v4.0) software (NanoString, Seattle, WA, United States). Data were adjusted utilizing the manufacturer’s positive and negative experimental control probes, as well as housekeeping genes (ACTA2, ACTB, B2M, LDHA, RNA18S5, and ROLYR2L). All samples passed nSolver’s initial QA/QC controls and replicates were very well correlated with R ^2 values greater than 0.99. Adjusted data were then imported into Partek v7.0 (St. Louis, MO, United States), log2 transformed and quantile normalized for further QA/QC and statistical analyses. Genes with mRNA counts below the detection threshold of 20 were removed due to suboptimal probe hybridization (N = 2 genes for GenX; GH2 and IGFBP5). Fold change values were analyzed by ANOVA with post hoc false discovery rate adjustment (FDR) of p < 0.1. Normalized gene expression values were visualized using pheatmap with Euclidean clustering of genes and concentration groups ([Kolde and Kolde, 2015]).

## O=C(O)C(F)(F)C(F)(F)C(F)(F)C(F)(F)C(F)(F)C(F)(F)C(F)(F)F [Perfluorooctanoic acid]
1 µM, 24 h
  11BHSD2 gene expression, fold change over untreated control: -1.06
  17BHSD1 gene expression, fold change over untreated control: -1.02
  ABCG2 gene expression, fold change over untreated control: -1.07
  AHR gene expression, fold change over untreated control: -1.09
  AHRR gene expression, fold change over untreated control: significantly altered
  CAT gene expression, fold change over untreated control: 1.02
  CGB5 gene expression, fold change over untreated control: 1.00
  COX2 gene expression, fold change over untreated control: -1.11
  CTNNB1 gene expression, fold change over untreated control: 1.00
  CYP1A1 gene expression, fold change over untreated control: 1.05
  CYP3A5 gene expression, fold change over untreated control: 1.28
  CYP3A7 gene expression, fold change over untreated control: 1.15
  CYP19A1 gene expression, fold change over untreated control: -1.05
  EGFR gene expression, fold change over untreated control: 1.07
  ENG gene expression, fold change over untreated control: 1.02
  ESRRA gene expression, fold change over untreated control: 1.00
  ESRRG gene expression, fold change over untreated control: -1.04
  GH2 gene expression, fold change over untreated control: 1.02
  GHR gene expression, fold change over untreated control: 1.00
  GPER1 gene expression, fold change over untreated control: 1.02
  GPX1 gene expression, fold change over untreated control: 1.00
  HIF1A gene expression, fold change over untreated control: 1.00
  IGF2 gene expression, fold change over untreated control: 1.00
  IGFBP5 gene expression, fold change over untreated control: -1.13
  IGFR1 gene expression, fold change over untreated control: 1.03
  IGFR2 gene expression, fold change over untreated control: 1.05
  IL6 gene expression, fold change over untreated control: -1.05
  MRP1 gene expression, fold change over untreated control: -1.03
  MRP2 gene expression, fold change over untreated control: 1.09
  MRP3 gene expression, fold change over untreated control: -1.08
  NFKB1 gene expression, fold change over untreated control: 1.00
  NFKB2 gene expression, fold change over untreated control: 1.00
  NR3C1 gene expression, fold change over untreated control: 1.09
  PGF gene expression, fold change over untreated control: 1.00
  PMM1 gene expression, fold change over untreated control: -1.03
  ROLYR2L gene expression, fold change over untreated control: 1.00
  SLC2A1 gene expression, fold change over untreated control: -1.02
  SOD1 gene expression, fold change over untreated control: 1.00
  TGFB1 gene expression, fold change over untreated control: 1.00
  VEGFA gene expression, fold change over untreated control: 1.00
  VEGFB gene expression, fold change over untreated control: -1.00
  WNT4 gene expression, fold change over untreated control: 1.25
  WNT6 gene expression, fold change over untreated control: -1.04
  WNT7B gene expression, fold change over untreated control: 1.06
  mTOR gene expression, fold change over untreated control: 1.00
100 µM, 24 h
  11BHSD2 gene expression, fold change over untreated control: -1.03
  AHR gene expression, fold change over untreated control: 1.08
  AHRR gene expression, fold change over untreated control: 1.00
  CAT gene expression, fold change over untreated control: -1.06
  CGB5 gene expression, fold change over untreated control: -1.15
  COX2 gene expression, fold change over untreated control: 1.03
  CTNNB1 gene expression, fold change over untreated control: 1.00
  CYP1A1 gene expression, fold change over untreated control: 1.18
  CYP2E1 gene expression, fold change over untreated control: 1.00
  CYP3A5 gene expression, fold change over untreated control: -1.18
  CYP3A7 gene expression, fold change over untreated control: -1.22
  CYP19A1 gene expression, fold change over untreated control: 1.00
  EGFR gene expression, fold change over untreated control: -1.07
  ENG gene expression, fold change over untreated control: -1.19
  ESRRA gene expression, fold change over untreated control: 1.00
  ESRRG gene expression, fold change over untreated control: -1.16
  GH2 gene expression, fold change over untreated control: 1.12
  GHR gene expression, fold change over untreated control: 1.15
  GPER1 gene expression, fold change over untreated control: -1.05
  GPX1 gene expression, fold change over untreated control: non-significant trend of decreased expression
  HIF1A gene expression, fold change over untreated control: 1.00
  IGF2 gene expression, fold change over untreated control: -1.00
  IGFBP5 gene expression, fold change over untreated control: -1.02
  IGFR1 gene expression, fold change over untreated control: 1.08
  IGFR2 gene expression, fold change over untreated control: significantly altered
  IL6 gene expression, fold change over untreated control: 1.10
  MRP1 gene expression, fold change over untreated control: -1.06
  MRP2 gene expression, fold change over untreated control: -1.03
  MRP3 gene expression, fold change over untreated control: -1.12
  NFKB1 gene expression, fold change over untreated control: 1.03
  NFKB2 gene expression, fold change over untreated control: 1.00
  NR3C1 gene expression, fold change over untreated control: 1.00
  PGF gene expression, fold change over untreated control: -1.00
  PMM1 gene expression, fold change over untreated control: 1.07
  ROLYR2L gene expression, fold change over untreated control: 1.00
  SLC2A1 gene expression, fold change over untreated control: -1.11
  SOD1 gene expression, fold change over untreated control: 1.00
  TGFB1 gene expression, fold change over untreated control: -1.18
  VEGFA gene expression, fold change over untreated control: 1.08
  VEGFB gene expression, fold change over untreated control: -1.04
  WNT4 gene expression, fold change over untreated control: significantly altered
  WNT6 gene expression, fold change over untreated control: -1.02
  WNT7B gene expression, fold change over untreated control: 1.06
  mTOR gene expression, fold change over untreated control: 1.00
100 µM, 24 h, listed as PFOA
  17BHSD1 gene expression, fold change over untreated control: significantly altered; also recorded: significant increase
  ABCG2 gene expression, fold change over untreated control: upregulation; also recorded: significantly altered
After 24 h of exposure
  lowest concentration inducing significant dysregulated expression of placental genes: 1 µM
